# “Also recorded” adds a separate entry of the source.
# Tests used:
# [1] = biological target: TRPA1 (Homo sapiens, UniProt O75762); experiment: FLIPR calcium-influx assay, block of cinnamaldehyde activation, CHO cells; assay type: cell-based; set-up: expressed in transfected cells; conditions: elicited by 50 μM cinnamaldehyde
# Experimental: (§1) Calcium influx was measured using a standard FLIPR assay, data points are the average of 4 wells (˜8,000 cells/well) and error bars show standard error. […] Data was generated using the FLIPR calcium-influx assay, n=3 wells (˜8,000 cells/well) and normalized to the maximal response. Bars show standard error and solid curves are hill equation fits from which EC50 values are derived.
# (§2) Using FLIPR calcium-influx assay, we screened 43,648 small molecules for their ability to block cinnamaldehyde-activation of human TRPA1 in a CHO cell line.
# (§3) FLIPR Screen: CHO cells expressing human TRPA1 were plated into 384 well plates at a concentration of ˜8,000 cells/well. Cells were transferred to phosphate-buffered saline (PBS) and loaded with the calcium sensitive dye FLUO-4 using the FLIPR Calcium 3 Assay Kit (Molecular Devices, Sunnyvale, Calif.) 1 hour prior to the assay. Assays were run using the FLIPR2 (Molecular Devices, Sunnyvale, Calif.). All compounds were diluted into PBS from a high concentration DMSO-based stock solution and added during data collection with the FLIPR2 internal pipette head. Final DMSO concentrations never exceeded 0.5%.
# [2] = biological target: T1, TRPV4 (Rattus norvegicus, UniProt Q9ERZ8); experiment: ThermoTRP selectivity test; assay type: cell-based; conditions: at 50 μM (data not shown)
# T1 construct: expressed in transfected cells; not restated for the selectivity test
# [3] = biological target: T2, mouse TRPA1 (Mus musculus, UniProt Q8BLA8); experiment: FLIPR calcium-influx assay, block of cinnamaldehyde activation, CHO cells; assay type: cell-based; conditions: elicited by 50 μM cinnamaldehyde, CHO cells
# T2 construct: expressed in transfected cells; host or cells: CHO cells (tetracycline-induced for PatchXpress; mTRPA1-pcDNA5 named for the transient labelling experiment)
# Experimental: as §1, §2, §3
# [4] = tested on: cinnamaldehyde-induced nociceptive events; experiment: Acute nociceptive behaviour after hindpaw injection of cinnamaldehyde; assay type: in vivo, mice; conditions: cinnamaldehyde 16.4 mM coinjected with compound 18 1 mM
# Experimental: Time spent licking and flicking hindpaws injected with cinnamaldehyde (16.4 mM) or capsaicin (0.328 mM) is measured for 5 min and compared with the hindpaw of another animal coinjected with compound 18 (1 mM). Numbers of cases for each experiment from the left is 8, 8, 6 and 6, respectively (***p<0.001, *p<0.05, two-tailed Student's T-test).
# We next set out to test if acute block of TRPA1 had any physiological consequence on pain sensation. […] To test the efficacy and specificity of compound 18 in vivo, we coinjected cinnamaldehyde and compound 18 in hindpaw of mice.
# Behavioral assays: Mice (C57B16 Mus musculus) of 8-10 weeks in age and 150-250 g Sprague Dawley rats were used for all behavioral assays. Animals were acclimated for 20-60 min to their testing environment prior to all experiments. Students' T test was used for all statistical calculations. All error bars represent standard error of the mean (SEM). […] Briefly, mice were acclimated for 60 min to their testing environment prior to all experiments.
# [5] = tested on: CFA-induced mechanical hyperalgesia; experiment: CFA-induced mechanical hyperalgesia (Von Frey threshold); assay type: in vivo; conditions: injected into hindpaw 24 hours after CFA, mice
# Experimental: (§4) Red symbols represent responses from CFA-injected (A), or BK-injected (B) hindpaws while blue symbols represent responses from the other noninjected hindpaws of the same animals. Circles represent responses upon compound 18 treatment, whereas triangles represent responses upon vehicle treatments (A-C). Von Frey thresholds are measured and averaged. (***p<0.001, *p<0.05, two-tailed Student's T-test). […] Red symbols represent responses from CFA-injected hindpaws while blue symbols represent responses from the other non-injected hindpaws of the same animals. Number of flicks, licks, paw raises for 10 min at each time point are counted and averaged (n=8, *p<0.05, two-tailed Student's T-test).
# (§5) Behavioral assays: Mice (C57B16 Mus musculus) of 8-10 weeks in age and 150-250 g Sprague Dawley rats were used for all behavioral assays. Animals were acclimated for 20-60 min to their testing environment prior to all experiments. Students' T test was used for all statistical calculations. All error bars represent standard error of the mean (SEM). Thermal plates, Hargreaves method (Plantar Analgesia meter) and Von Frey apparatus (Dynamic Plantar Aesthesiometer) were from UGO Basile and Columbus instruments. […] Briefly, mice were acclimated for 60 min to their testing environment prior to all experiments. Baseline responses were measured first and then 10 nM BK was injected to the skin of left hindpaws. Von Frey threshold or paw withdrawal latency was measured at 5, 15 and 30 min post injection. 1 mM of compound 18 was sometimes coinjected to left hindpaws to test its analgesic effect. For CFA-induced hyperalgesia test, 5 μg CFA in 10 uL was injected into mice (Caterina et al., Science 288:306, 2000; and Cao et al., Nature 392:390, 1998) and 50 μg in 100 uL (1:1 emulsion of mineral oil and saline; Obata et al., J Clin Invest 115:2393, 2005) was injected into rats and in 24 hrs measurements were performed. Before the measurement, the animals were re-acclimated to the environment for 20-60 min. […]
# [6] = tested on: CFA-induced heat hyperalgesia; experiment: CFA-induced heat hyperalgesia; assay type: in vivo; conditions: mice
# Experimental: as §4, §5
# [7] = biological target: T3, TRPM8 (Mus musculus, UniProt Q8R4D5); experiment: ThermoTRP selectivity test; assay type: cell-based; conditions: at 50 μM (data not shown)
# T3 construct: expressed in transfected cells; not restated for the selectivity test
# [8] = biological target: rat TRPA1 (Rattus norvegicus, UniProt Q6RI86); experiment: Block of rat TRPA1 (data not shown); assay type: cell-based
# [9] = tested on: CFA-induced cold hyperalgesia; experiment: CFA-induced cold hyperalgesia on a 5° C. plate; assay type: in vivo; conditions: rats
# [10] = biological target: T2, mouse TRPA1; experiment: Whole-cell electrophysiology of TRPA1-expressing CHO cells (pressure, hyperosmolarity, cold); assay type: cell-based; conditions: data not shown
# Source text: We tested if TRPA1 is activated by mechanical forces. The electrophysiological behavior of thermoTRP-expressing Chinese Hamster Ovary (CHO) cells was investigated with two different assays of mechanical stress—pressure application using the recording pipette and changes in external osmolarity.
# Mechanosensory neurons are often classified as high- or low-threshold, characterizing responses to pain and touch, respectively. We tested the mechanical threshold of TRPA1 by applying a wide range of negative pipette pressures (FIG. 1C). TRPA1-expressing CHO cells are activated at −90 mmHg or higher, consistent with native high-threshold mechanical receptors involved in sensing pain (Cho et al., J Neurosci 22:1238, 2002). […] Gadolinium (Gd^3+) is considered a blocker of native mechanically-gated ion channels in animal tissues (Martinac et al., Physiol Rev 81:685, 2001). […] FM1-43 is a styryl dye that specifically labels sensory cells by entering through open transduction channels. […] Furthermore, it was observed that 10 μM of FM1 -43 was able to block cinnamaldehyde-induced currents in TRPA1-expressing CHO cells (n=8).
# To ensure that the mechanical response we observe is not an artifact of heterologous expression system, we tested if native TRPA1-expressing neurons also respond to such stimuli. 5/6 cinnamaldehyde-sensitive (presumptive TRPA1-expressing) DRG neurons responded to an application of −200 mmHg of suction, while 0/21 cinnamaldehyde insensitive neurons responded (16 of 21 were capsaicin-sensitive) (FIG. 2B). Millimolar camphor was recently reported to inhibit basal currents and cold or agonist-activation of TRPA1.
# Mammalian cell electrophysiology: ThermoTRP-expressing CHO cells (rat TRPV1, rat TRPV2, mouse TRPV3, rat TRPV4, mouse TRPM8, and mouse TRPA1), control CHO cells, and cultured rat DRG neurons were prepared as described in Story et al., Cell 112:819, 2003; and Bandell et al., Neuron 41:849, 2004. Electrophysiological recordings were performed as described in Bandell et al., Neuron 41:849, 2004. Briefly, CHO cells were clamped at −60 mV and 0.8 second ramps from −80 mV to +80 mV were run every 4 seconds. Currents from DRG neurons were recorded at −60 mV and for their current-voltage curve, 300 ms voltage step at +20 mV was used 40 ms before 800 ms ramp from -80 mV to +80 mV to minimize contamination of voltage gated Na^+ or Ca^2+ current. The pipette solution for temperature and hyperosmotic experiments consisted of (in mM) 140 CsCl, 5 EGTA, 10 HEPES, 2 MgATP, 0.2 NaGTP, titrated to pH 7.4 with CsOH. The base external solution for these experiments consisted of (in mM) 140 NaCl, 5KCl, 10 HEPES, 2CaCl2, 1MgCl2, titrated to pH 7.4 with NaOH. Mannitol was used to adjust osmolarity for hypertonic solutions. For mouse TRPV3 and rat TRPV2, external calcium was replaced with 5 mM EGTA. Gluconate was substituted for chloride in (±)-pressure and hypotonic experiments to eliminate the potential for endogenous swelling-activated chloride currents. For these experiments, pipette solution (295 mOsm) consisted of (in mM) 125 Cs-gluconate, 15CsCl, 5 EGTA, 10 HEPES, 2 MgATP, 0.2NaGTP, titrated to pH 7.4 with CsOH. The external solution consisted of (in mM) 90 Na-gluconate, 10 NaCl, 5 K-gluconate, 10 HEPES, 2 CaCl2, 1 MgCl2, titrated to pH 7.4 with NaOH. Osmolarity was adjusted with mannitol to 220 mOsm (hypotonic) or 298 mOsm 15 (isotonic). (±)-Pressure was hydrostatically delivered by the recording pipette using syringe pumping (Hamill et al., Annu Rev Physiol 59:621, 1997) and monitored through Pressure Monitor (World Precision Instruments). Warner temperature controller (TC-324B and CL-100) was used for the heating or cooling the perfused bath solutions. […] The number of cells (n) tested with -100 mmHg to −300 mmHg, ˜+100 mmHg, 450 mOsm, and 220 mOsm for each cell type, respectively, are: CHO cells, n=7, 14, 5, 12; TRPV1, n=6, 5, 7, 5; TRPV2, n=4, 5, 3, 5; TRPV3, n=3, 2, 3, 0; TRPM8, n=12, 4, 10, 0. […]
# T2 sequence (Q8BLA8 whole entry): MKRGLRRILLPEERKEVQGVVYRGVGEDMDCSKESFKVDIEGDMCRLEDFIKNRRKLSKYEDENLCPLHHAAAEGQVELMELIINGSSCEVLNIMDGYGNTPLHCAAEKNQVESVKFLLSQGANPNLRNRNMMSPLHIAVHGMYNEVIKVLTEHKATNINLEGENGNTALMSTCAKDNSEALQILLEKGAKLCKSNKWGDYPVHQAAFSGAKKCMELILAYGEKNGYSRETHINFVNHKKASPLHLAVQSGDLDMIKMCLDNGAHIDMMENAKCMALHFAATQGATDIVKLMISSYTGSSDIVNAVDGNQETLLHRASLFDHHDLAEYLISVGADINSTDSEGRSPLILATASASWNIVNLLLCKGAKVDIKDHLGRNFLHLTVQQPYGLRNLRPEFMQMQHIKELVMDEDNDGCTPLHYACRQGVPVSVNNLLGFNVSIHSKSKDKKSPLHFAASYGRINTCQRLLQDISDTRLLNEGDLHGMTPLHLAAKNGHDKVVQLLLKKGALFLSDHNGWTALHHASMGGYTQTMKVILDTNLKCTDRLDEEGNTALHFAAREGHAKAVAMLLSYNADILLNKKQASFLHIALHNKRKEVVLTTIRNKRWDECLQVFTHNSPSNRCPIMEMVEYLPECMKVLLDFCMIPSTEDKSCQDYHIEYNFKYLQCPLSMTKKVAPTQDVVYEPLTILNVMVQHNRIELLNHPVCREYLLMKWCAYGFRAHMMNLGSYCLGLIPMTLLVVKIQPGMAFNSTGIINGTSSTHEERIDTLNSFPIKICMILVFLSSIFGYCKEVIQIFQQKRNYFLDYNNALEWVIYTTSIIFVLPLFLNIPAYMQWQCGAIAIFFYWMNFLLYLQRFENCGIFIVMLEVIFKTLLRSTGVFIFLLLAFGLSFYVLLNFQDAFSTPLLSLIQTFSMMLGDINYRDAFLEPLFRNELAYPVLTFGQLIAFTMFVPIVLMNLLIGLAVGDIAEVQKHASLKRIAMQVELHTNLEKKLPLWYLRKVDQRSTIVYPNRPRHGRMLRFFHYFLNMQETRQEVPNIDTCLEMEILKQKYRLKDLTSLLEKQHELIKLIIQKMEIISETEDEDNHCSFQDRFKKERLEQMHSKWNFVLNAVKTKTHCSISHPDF
# T3 sequence (Q8R4D5 whole entry): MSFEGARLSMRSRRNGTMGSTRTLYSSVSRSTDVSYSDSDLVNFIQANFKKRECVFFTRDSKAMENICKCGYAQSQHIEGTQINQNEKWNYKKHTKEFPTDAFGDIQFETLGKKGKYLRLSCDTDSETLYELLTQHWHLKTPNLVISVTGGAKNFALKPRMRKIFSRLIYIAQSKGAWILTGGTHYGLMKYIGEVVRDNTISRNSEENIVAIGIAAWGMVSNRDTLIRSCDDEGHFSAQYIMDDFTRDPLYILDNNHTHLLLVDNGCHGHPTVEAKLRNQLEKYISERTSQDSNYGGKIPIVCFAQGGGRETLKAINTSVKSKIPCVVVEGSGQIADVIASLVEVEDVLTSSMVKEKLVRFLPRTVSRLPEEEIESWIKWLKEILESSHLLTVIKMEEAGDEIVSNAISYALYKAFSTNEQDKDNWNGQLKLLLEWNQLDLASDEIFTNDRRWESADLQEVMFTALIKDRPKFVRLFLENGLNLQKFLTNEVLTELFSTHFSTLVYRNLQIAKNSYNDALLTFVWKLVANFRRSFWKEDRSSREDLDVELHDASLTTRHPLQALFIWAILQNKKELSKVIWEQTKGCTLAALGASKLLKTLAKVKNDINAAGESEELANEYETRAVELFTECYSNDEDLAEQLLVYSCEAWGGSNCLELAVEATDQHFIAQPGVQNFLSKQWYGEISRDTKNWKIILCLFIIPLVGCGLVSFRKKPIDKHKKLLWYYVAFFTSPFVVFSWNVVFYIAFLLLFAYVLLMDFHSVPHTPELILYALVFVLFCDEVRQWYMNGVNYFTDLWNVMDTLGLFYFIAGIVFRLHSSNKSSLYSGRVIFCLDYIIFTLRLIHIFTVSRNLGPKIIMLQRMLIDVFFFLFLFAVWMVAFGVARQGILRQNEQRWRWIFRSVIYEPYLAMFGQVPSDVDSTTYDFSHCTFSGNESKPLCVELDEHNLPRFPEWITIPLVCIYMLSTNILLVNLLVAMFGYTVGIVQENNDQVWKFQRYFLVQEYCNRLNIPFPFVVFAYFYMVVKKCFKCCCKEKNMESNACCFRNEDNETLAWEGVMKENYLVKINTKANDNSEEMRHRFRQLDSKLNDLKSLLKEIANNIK
# TRPA1, sequence (O75762 whole entry): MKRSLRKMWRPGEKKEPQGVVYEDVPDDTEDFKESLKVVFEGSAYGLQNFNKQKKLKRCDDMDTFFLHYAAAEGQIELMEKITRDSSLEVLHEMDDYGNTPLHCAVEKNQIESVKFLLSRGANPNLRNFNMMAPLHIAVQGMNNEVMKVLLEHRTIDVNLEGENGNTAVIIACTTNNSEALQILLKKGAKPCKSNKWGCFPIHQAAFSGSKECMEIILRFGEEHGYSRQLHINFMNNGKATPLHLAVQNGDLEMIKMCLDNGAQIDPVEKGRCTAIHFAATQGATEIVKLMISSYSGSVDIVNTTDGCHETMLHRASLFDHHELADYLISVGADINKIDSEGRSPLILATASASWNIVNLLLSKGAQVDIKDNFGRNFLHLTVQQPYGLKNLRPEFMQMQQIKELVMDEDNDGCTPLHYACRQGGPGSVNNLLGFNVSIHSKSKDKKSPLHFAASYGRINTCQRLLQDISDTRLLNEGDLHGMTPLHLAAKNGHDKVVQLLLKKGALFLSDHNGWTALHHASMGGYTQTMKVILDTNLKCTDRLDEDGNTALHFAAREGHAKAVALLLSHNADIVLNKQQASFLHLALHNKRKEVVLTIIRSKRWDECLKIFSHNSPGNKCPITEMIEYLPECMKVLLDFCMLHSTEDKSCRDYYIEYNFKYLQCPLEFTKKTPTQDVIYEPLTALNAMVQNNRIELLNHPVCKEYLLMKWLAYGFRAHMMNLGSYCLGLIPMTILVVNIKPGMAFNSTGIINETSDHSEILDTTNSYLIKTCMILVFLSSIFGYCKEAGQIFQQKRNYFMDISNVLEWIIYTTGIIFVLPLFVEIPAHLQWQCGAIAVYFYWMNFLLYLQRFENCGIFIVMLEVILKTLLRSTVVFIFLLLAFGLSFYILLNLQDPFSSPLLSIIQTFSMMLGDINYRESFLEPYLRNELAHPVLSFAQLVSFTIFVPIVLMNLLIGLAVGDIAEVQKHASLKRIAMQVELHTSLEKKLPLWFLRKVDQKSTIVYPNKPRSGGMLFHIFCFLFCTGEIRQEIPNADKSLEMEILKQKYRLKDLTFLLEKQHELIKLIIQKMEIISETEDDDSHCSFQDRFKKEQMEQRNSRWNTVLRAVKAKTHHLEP
# rat TRPA1, sequence (Q6RI86 whole entry): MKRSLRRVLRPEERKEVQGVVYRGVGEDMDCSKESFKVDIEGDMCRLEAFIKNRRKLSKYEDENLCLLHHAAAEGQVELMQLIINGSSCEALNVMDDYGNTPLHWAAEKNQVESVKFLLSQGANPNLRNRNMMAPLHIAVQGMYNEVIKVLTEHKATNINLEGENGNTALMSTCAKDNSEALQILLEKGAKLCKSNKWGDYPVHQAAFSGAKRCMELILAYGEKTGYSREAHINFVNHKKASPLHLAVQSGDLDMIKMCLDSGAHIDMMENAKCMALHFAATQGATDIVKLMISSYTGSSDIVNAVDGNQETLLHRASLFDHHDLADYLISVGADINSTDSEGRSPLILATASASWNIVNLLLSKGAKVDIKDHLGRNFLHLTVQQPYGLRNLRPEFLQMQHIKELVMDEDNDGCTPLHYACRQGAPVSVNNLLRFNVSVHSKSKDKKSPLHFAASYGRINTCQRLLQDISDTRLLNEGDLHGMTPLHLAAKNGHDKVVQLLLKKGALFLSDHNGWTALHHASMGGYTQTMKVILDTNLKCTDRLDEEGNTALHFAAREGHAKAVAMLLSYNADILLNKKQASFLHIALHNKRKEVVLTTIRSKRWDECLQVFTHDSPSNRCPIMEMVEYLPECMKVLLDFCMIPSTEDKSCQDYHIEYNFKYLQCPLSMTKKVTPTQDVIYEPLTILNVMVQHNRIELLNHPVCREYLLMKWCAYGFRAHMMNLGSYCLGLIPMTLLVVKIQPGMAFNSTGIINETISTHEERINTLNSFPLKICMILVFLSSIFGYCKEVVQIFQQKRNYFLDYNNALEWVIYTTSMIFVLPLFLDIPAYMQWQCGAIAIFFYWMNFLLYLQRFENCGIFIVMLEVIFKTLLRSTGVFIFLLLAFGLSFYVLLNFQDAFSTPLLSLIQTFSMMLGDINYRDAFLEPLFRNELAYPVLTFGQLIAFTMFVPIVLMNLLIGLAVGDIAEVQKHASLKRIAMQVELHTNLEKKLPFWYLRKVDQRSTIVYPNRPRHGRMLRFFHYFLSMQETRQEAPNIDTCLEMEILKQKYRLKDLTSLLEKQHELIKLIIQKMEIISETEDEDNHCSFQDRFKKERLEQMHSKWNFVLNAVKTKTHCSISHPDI
structure (smiles),measurement,setting,value
"CC(=Cc1ccc(Cl)cc1)C(C)=NO [Compound 18, (Z)-4-(4-chlorophynyl)-3-methylbut-3-en-2-oxime]",IC50,[1],3.1 µM
same,block of TRPV4,[2],did not block
same,IC50,[3],4.5 µM
same,"cinnamaldehyde-induced nociceptive events (time spent licking and flicking hindpaw, 5 min)",[4],suppresses; also recorded: significantly blocked
same,CFA-induced mechanical hyperalgesia,[5],reverses; also recorded: relieved
same,CFA-induced heat hyperalgesia,[6],not thermal (heat) behaviours; also recorded: did not block
same,block of TRPM8,[7],did not block
same,block of rat TRPA1,[8],blocked
same,"CFA-induced cold hyperalgesia (flicks, licks, paw raises for 10 min)",[9],reverses cold behaviours; also recorded: robust block
same,block of TRPA1 responses in CHO cells induced by cold,[10],blocked
same,block of TRPA1 responses in CHO cells induced by pressure,[10],blocked

# From US20090175882A1, “METHODS AND COMPOSITIONS FOR TREATING HYPERALGESIA” (IRM LLC, priority 2006, published 2009)
